Measurements from patent publication US11332485B2, “Penicillin-binding protein inhibitors” (priority 2017, dated 2022).
Read-outs that look alike come from different tables or passages of the source.

Legend:
[1] = tested on: E. coli DH5α/pLBII-CTX-M15; assay: Broth microdilution MIC assay, engineered strain producing CTX-M15; assay type: cell-based, Escherichia coli; settings: Escherichia coli, read-out: E. coli DH5α/pLBII-CTX-M15 Microbiological Activity (MIC)
Outline: (§1)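 CLSI broth microdilution in cation-supplemented Mueller-Hinton broth, 2-fold compound dilutions, 5×10^5 CFU/mL inoculum, 16-20 h at 37° C, MIC read visually as lowest concentration without growth. E. coli DH5α carries CTX-M15 on pLBII under Lac promoter, or empty pLBII as control.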

S. aureus ATCC 29213 = assay: Broth microdilution MIC assay; assay type: cell-based; settings: Staphylococcus aureus, ATCC29213; broth microdilution, 16-20 hours at 37° C.; read-out: S. aureus 29213 MIC
Outline: (§2)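 Growth inhibition is measured by CLSI broth microdilution. Log-phase bacteria (5×10^5 CFU/mL starting density) are incubated with 2-fold compound dilutions in cation-supplemented MH broth for 16-20 hours at 37° C, and the MIC is scored visually.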

[2] = tested on: hyper-permeable E. coli 901C; assay: Broth microdilution MIC assay; assay type: cell-based; settings: Escherichia coli, read-out: E. coli 901C MIC
Outline: as §2

[3] = molecular target: T1, PBP3 from Escherichia coli (Escherichia coli, UniProt P0AD68); assay: Fluorescence polarization competition binding assay with Bocillin-FL
T1 construct: made in house
Outline: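 Fluorescence polarization competition assay with Bocillin-FL at 0.1 μM final and purified E. coli PBP3 at 1.5 μM final in 50 mM Hepes pH 8.0, 300 mM NaCl, 5% glycerol. Inhibitor preincubated with PBP3 for 30 min before probe addition; FP then read continuously for 60 min. Potency reported in binned categories.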

[4] = molecular target: T2, PBP1a from Escherichia coli (Escherichia coli, UniProt P02918); assay: Radioligand competition binding assay with 14C-labeled boronic acid probe (Example 96); settings: PBP 0.1 μM
T2 construct: made in house
Source text: (§3) To determine the ability of boronic acid-based test PBP inhibitors to bind Penicillin Binding Proteins (PBPs), a radio-labelled boronic acid PBP inhibitor (Example 96) was used in competition binding assays to determine boronic acid PBP inhibitor binding to PBP1a or PBP1b from Escherichia coli. PBP1a and PBP1b were purified as described previously (Bertsche, U.; et al., J. Biol. Chem. 2005, 280 (45), 38096-38101; Born, P.; et al., J Biol. Chem. 2006. 281 (37), 26985-26993). To establish assay conditions for competition binding, an enzyme titration/saturation binding experiment was performed. Saturation binding was performed in a buffer comprised of 20 mM Tris (pH 7.5), 500 mM NaCl and 0.1% (v/v) TritonX-100, with PBP1a/PBP1b at a final concentration of 0.1 μM and 96 at final concentrations ranging from 0-100 μM. Mixtures were incubated for 60 minutes, then applied to Zeba Spin Desalting columns or plates (ThermoFisher Scientific) and centrifuged at 1000-1500×g for 2 minutes. The flow through, containing PBP bound with 96, was recovered and 100 μL mixed with 5 mL of UltimaGold liquid scintillation cocktail (Perkin Elmer), and the radioactivity counted using a Beckman Coulter LS 6500 Multipurpose scintillation counter. PBP binding of 96 approached saturation at 20 μM of ^14C-labeled probe. The competition binding assay was validated using the beta-lactam ampicillin, with 96 at a final concentration of 20 μM, PBP1a/PBP1b at a final concentration of 0.1 μM. PBP1a/PBP1b was incubated with ampicillin in a 96-well microplate for 60 minutes, then 96 was added and the mixtures incubated for an additional 60 minutes. The mixtures were then applied to Zeba Spin desalting plates and centrifuged at 1000×g for 2 minutes. The flow through was recovered and 100 μl mixed with 5 ml of UltimaGold liquid scintillation cocktail and the radioactivity counted. Ampicillin inhibited binding of 96 with an EC50 (the concentration of inhibitor required to reduce binding of 96 by 50%) of less than 0.5 μM. Binding assays with boronic acid PBP inhibitors were performed in an identical fashion. The potency of boronic acid PBP inhibitors was reported as the EC50 value.
(§4) Representative results are shown in Table 5, where A represents a potency of >100 μM, B represents a potency between 10 μM and 100 μM inclusive, and C represents a potency of <10 μM. NT=Not Tested.

E. coli DH5α/pLBII = assay: Broth microdilution MIC assay, empty vector control strain; assay type: cell-based; settings: Escherichia coli, read-out: E. coli DH5α/pLBII Microbiological Activity (MIC)
Outline: as §1

[5] = molecular target: T3, PBP1b from Escherichia coli (Escherichia coli, UniProt P02919); assay: Radioligand competition binding assay with 14C-labeled boronic acid probe (Example 96); settings: 14C-labeled probe 96 at 20 μM, PBP 0.1 μM; read-out: E. coli K12 PBP1b EC50
T3 construct: made in house
Source text: as §3, §4

[6] = 14C-labeled probe 96 at 20 μM, read-out: E. coli K12 PBP1a EC50
[7] = E. coli K12 PBP1a EC50, 14C-labeled probe 96 at 20 μM

T1 sequence (P0AD68 1-577): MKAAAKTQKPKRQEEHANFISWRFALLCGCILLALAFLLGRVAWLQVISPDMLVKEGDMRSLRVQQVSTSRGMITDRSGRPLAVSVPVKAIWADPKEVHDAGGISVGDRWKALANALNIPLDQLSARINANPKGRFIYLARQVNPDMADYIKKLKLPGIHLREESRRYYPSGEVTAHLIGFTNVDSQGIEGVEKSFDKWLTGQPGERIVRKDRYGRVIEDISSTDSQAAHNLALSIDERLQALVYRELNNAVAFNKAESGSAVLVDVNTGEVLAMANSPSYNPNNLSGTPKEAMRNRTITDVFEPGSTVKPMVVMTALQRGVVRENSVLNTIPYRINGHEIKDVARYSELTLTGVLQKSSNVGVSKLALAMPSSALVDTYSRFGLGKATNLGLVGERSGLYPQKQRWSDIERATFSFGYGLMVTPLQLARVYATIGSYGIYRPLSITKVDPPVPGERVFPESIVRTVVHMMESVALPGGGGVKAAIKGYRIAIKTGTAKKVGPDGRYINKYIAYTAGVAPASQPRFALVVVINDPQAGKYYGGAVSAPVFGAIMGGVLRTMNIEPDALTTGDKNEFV
T3 sequence (P02919 whole entry): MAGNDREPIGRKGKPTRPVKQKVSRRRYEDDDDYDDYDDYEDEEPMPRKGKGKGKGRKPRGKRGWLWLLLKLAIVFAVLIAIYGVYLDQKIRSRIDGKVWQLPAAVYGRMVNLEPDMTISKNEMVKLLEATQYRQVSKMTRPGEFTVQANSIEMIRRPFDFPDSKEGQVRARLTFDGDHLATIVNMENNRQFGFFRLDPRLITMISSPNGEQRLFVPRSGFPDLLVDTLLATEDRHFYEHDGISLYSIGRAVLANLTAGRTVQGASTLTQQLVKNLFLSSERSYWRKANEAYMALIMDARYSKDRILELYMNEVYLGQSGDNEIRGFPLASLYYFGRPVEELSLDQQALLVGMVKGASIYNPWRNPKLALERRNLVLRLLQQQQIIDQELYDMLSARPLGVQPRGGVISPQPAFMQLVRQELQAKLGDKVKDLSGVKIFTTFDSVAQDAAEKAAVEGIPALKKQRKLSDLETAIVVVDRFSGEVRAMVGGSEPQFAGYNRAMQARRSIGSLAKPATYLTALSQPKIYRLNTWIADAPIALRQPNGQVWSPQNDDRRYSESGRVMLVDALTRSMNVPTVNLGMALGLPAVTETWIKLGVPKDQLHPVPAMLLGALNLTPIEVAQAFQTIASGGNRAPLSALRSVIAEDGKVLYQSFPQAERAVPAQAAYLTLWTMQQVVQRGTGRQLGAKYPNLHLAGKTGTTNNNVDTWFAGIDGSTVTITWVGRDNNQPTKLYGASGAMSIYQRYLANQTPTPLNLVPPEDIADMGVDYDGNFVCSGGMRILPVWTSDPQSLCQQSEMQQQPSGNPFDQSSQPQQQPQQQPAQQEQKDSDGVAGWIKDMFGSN
T2 sequence (P02918 whole entry): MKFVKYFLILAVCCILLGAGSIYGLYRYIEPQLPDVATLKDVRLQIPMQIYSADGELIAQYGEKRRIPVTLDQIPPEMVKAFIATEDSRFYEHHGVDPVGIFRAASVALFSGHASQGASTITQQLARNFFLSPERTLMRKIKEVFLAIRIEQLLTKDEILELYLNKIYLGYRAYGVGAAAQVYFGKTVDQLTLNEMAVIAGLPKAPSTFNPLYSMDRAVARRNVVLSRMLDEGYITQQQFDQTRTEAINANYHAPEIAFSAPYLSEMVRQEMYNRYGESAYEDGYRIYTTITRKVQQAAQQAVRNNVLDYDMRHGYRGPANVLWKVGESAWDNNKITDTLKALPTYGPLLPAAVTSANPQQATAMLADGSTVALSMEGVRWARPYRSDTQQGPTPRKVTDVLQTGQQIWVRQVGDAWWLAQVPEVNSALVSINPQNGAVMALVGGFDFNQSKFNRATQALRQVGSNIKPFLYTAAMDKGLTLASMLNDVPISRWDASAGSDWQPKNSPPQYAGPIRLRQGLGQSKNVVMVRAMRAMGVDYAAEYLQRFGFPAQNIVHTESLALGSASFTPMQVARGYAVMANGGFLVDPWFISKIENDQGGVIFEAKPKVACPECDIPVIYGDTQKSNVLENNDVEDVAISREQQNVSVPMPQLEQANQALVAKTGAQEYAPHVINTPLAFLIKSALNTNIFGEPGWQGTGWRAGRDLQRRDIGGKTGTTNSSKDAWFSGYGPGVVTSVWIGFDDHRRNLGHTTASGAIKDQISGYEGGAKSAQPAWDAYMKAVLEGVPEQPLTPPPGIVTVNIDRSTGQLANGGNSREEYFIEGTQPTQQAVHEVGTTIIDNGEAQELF

Structure (SMILES)	MIC [1] [µg/mL]	MIC (S. aureus ATCC 29213) [µg/mL]	MIC [2] [µg/mL]	EC50 [3] [µM]	EC50 [4, 6] [µM]	MIC (E. coli DH5α/pLBII) [µg/mL]	EC50 [4, 7] [µM]	EC50 [5] [µM]
CCN1CCN(C(=O)NC(C(=O)N[C@H]2Cc3cc(OC)cc(C(=O)O)c3OB2O)c2csc(N)n2)C(=O)C1=O (stereo partly drawn) [Example 38, (3R)-3-(2-(2-aminothiazol-4-yl)-2-(4-ethyl-2,3-dioxopiperazine-1-carboxamido)acetamido)-2-hydroxy-6-methoxy-3,4-dihydro-2H-benzo[e][1,2]oxaborinine-8-carboxylic acid]	32 to 64	64 to 128	< 64	> 500	< 10	32 to 64	–	–
CCN1CCN(C(=O)NC(C(=O)N[C@H]2Cc3cc(O)cc(C(=O)O)c3OB2O)c2csc(N)n2)C(=O)C1=O (stereo partly drawn) [Example 39, (3R)-3-(2-(2-aminothiazol-4-yl)-2-(4-ethyl-2,3-dioxopiperazine-1-carboxamido)acetamido)-2,6-dihydroxy-3,4-dihydro-2H-benzo[e][1,2]oxaborinine-8-carboxylic acid]	32 to 64	> 128	< 64	30 to 500	–	32 to 64	10 to 100	–
CN1CCN(C(=O)NC(C(=O)N[C@H]2Cc3cccc(C(=O)O)c3OB2O)c2csc(N)n2)C(=O)C1=O (stereo partly drawn) [Example 43, (3R)-3-(2-(2-aminothiazol-4-yl)-2-(4-methyl-2,3-dioxopiperazine-1-carboxamido)acetamido)-2-hydroxy-3,4-dihydro-2H-benzo[e][1,2]oxaborinine-8-carboxylic acid]	32 to 64	64 to 128	< 64	30 to 500	> 100	32 to 64	–	–
Nc1nc(C(NC(=O)N2CCN(C3CC3)C(=O)C2=O)C(=O)N[C@H]2Cc3cccc(C(=O)O)c3OB2O)cs1 (stereo partly drawn) [Example 44, (3R)-3-(2-(2-aminothiazol-4-yl)-2-(4-cyclopropyl-2,3-dioxopiperazine-1-carboxamido)acetamido)-2-hydroxy-3,4-dihydro-2H-benzo[e][1,2]oxaborinine-8-carboxylic acid]	32 to 64	64 to 128	< 64	30 to 500	< 10	32 to 64	–	–
CCN1CCN(CC(=O)NC(C(=O)N[C@H]2Cc3cccc(C(=O)O)c3OB2O)c2csc(N)n2)C(=O)C1=O (stereo partly drawn) [Example 45, (3R)-3-(2-(2-aminothiazol-4-yl)-2-(2-(4-ethyl-2,3-dioxopiperazin-1-yl)acetamido)acetamido)-2-hydroxy-3,4-dihydro-2H-benzo[e][1,2]oxaborinine-8-carboxylic acid]	32 to 64	> 128	< 64	30 to 500	< 10	32 to 64	–	–
CCN1CCN(C(=O)N[C@@H](C(=O)N[C@H]2Cc3cccc(C(=O)O)c3OB2O)[C@H](C)O)C(=O)C1=O [Example 47, (R)-3-((2R,3S)-2-(4-Ethyl-2,3-dioxopiperazine-1-carboxamido)-3-hydroxy-butanamido)-2-hydroxy-3,4-dihydro-2H-benzo[e][1,2]oxaborinine-8-carboxylic acid]	8 to 16	> 128	< 64	> 500	< 10	8 to 16	–	–
CCN1CCN(C(=O)N[C@@H](C(=O)N[C@H]2Cc3cccc(C(=O)O)c3OB2O)[C@@H](C)O)C(=O)C1=O [Example 48, (R)-3-((2R,3R)-2-(4-Ethyl-2,3-dioxopiperazine-1-carboxamido)-3-hydroxy-butanamido)-2-hydroxy-3,4-dihydro-2H-benzo[e][1,2]oxaborinine-8-carboxylic acid]	8 to 16	> 128	< 64	30 to 500	< 10	8 to 16	–	–
Nc1nc(C(NC(=O)N2CCS(=O)(=O)CC2)C(=O)N[C@H]2Cc3cccc(C(=O)O)c3OB2O)cs1 (stereo partly drawn) [Example 65, (3R)-3-(2-(2-aminothiazol-4-yl)-2-(1,1-dioxidothiomorpholine-4-carboxamido)acetamido)-2-hydroxy-3,4-dihydro-2H-benzo[e][1,2]oxaborinine-8-carboxylic acid]	32 to 64	64 to 128	< 64	30 to 500	–	32 to 64	< 10	–
Nc1nc(C(NC(=O)N2CCN(CC3CC3)C(=O)C2=O)C(=O)N[C@H]2Cc3cccc(C(=O)O)c3OB2O)cs1 (stereo partly drawn) [Example 67, (3R)-3-(2-(2-aminothiazol-4-yl)-2-(4-(cyclopropylmethyl)-2,3-dioxopiperazine-1-carboxamido)acetamido)-2-hydroxy-3,4-dihydro-2H-benzo[e][1,2]oxaborinine-8-carboxylic acid]	32 to 64	64 to 128	< 64	30 to 500	–	32 to 64	–	< 10
CCN1CCN(C(=O)N[C@H](C(=O)N[C@H]2Cc3cccc(C(=O)O)c3OB2O)[C@H](O)CO)C(=O)C1=O [Example 73, (R)-3-((2S,3S)-2-(4-ethyl-2,3-dioxopiperazine-1-carboxamido)-3,4-dihydroxybutanamido)-2-hydroxy-3,4-dihydro-2H-benzo[e][1,2]oxaborinine-8-carboxylic acid]	> 512	> 128	> 128	> 500	–	> 512	–	> 100
CCN1CCN(C(=O)N[C@@H](C(=O)N[C@H]2Cc3cccc(C(=O)O)c3OB2O)C(C)C)C(=O)C1=O [Example 78, (R)-3-((R)-2-(4-ethyl-2,3-dioxopiperazine-1-carboxamido)-3-methylbutanamido)-2-hydroxy-3,4-dihydro-2H-benzo[e][1,2]oxaborinine-8-carboxylic acid]	32 to 64	64 to 128	< 64	< 30	–	32 to 64	–	< 10
CCN1CCN(C(=O)NC(Cc2ccccc2)C(=O)N[C@H]2Cc3cccc(C(=O)O)c3OB2O)C(=O)C1=O (stereo partly drawn) [Example 79, (3R)-3-(2-(4-ethyl-2,3-dioxopiperazine-1-carboxamido)-3-phenylpropanamido)-2-hydroxy-3,4-dihydro-2H-benzo[e][1,2]oxaborinine-8-carboxylic acid]	–	< 64	< 64	30 to 500	–	–	–	< 10
C[C@@H](O)[C@@H](NC(=O)N1CCN(CCF)C(=O)C1=O)C(=O)N[C@H]1Cc2cccc(C(=O)O)c2OB1O [Example 91, (R)-3-((2R,3R)-2-(4-(2-fluoroethyl)-2,3-dioxopiperazine-1-carboxamido)-3-hydroxybutanamido)-2-hydroxy-3,4-dihydro-2H-benzo[e][1,2]oxaborinine-8-carboxylic acid]	8 to 16	> 128	< 64	> 500	–	–	–	< 10
